Reference: patent US5834472A (Schering Corporation, priority 1997, dated 1998)

Legend:
[1] = test system: Aspergillis; settings: aqueous suspensions; cited from earlier work
[2] = test system: Candida; settings: aqueous suspensions; cited from earlier work
[3] = water solubility; format: physicochemical
[4] = test system: Cryptococcus; settings: aqueous suspensions; cited from earlier work

CCC(C(C)O)n1ncn(-c2ccc(N3CCN(c4ccc(OCC5COC(Cn6cncn6)(c6ccc(F)cc6F)C5)cc4)CC3)cc2)c1=O (single isomer, unassigned; (-)) [antifungal compound]
antifungal activity against Aspergillis [1]: potent antifungal activity
antifungal activity against Candida [2]: potent antifungal activity
water solubility [3]: extremely low water solubility
antifungal activity against Cryptococcus [4]: potent antifungal activity
